Laboratory results as given in PubChem BioAssay (NCI).
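Step 1: Grow cells in 96-well plates. Step 2: Expose to compound for 48 hours at 5 concentrations. Step 3: Interpolate endpoints linearly; if unreached, use highest concentration. GI50: concentration for 50% inhibition of growth. TGI is the concentration that stops growth completely.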

Key:
Experiment in all cases: NCI tumour cell line growth inhibition, 48 h
SF-268 CNS = tested on: SF-268 CNS
NCI-H226 lung = tested on: NCI-H226 lung
U251 CNS = tested on: U251 CNS
OVCAR-8 ovarian = tested on: OVCAR-8 ovarian
A549 NSCLC = tested on: A549 NSCLC
KM12 colon = tested on: KM12 colon
MOLT-4 leukemia = tested on: MOLT-4 leukemia
A498 renal = tested on: A498 renal
K-562 leukemia = tested on: K-562 leukemia
SK-MEL-5 melanoma = tested on: SK-MEL-5 melanoma

SMILES	TGI (SF-268 CNS) [µM]	TGI (NCI-H226 lung) [µM]	TGI (U251 CNS) [µM]	TGI (OVCAR-8 ovarian) [µM]	TGI (A549 NSCLC) [µM]	TGI (KM12 colon) [µM]	TGI (MOLT-4 leukemia) [µM]	TGI (A498 renal) [µM]	TGI (K-562 leukemia) [µM]	TGI (SK-MEL-5 melanoma) [µM]	GI50 (SF-268 CNS) [µM]	GI50 (NCI-H226 lung) [µM]	GI50 (U251 CNS) [µM]	GI50 (OVCAR-8 ovarian) [µM]	GI50 (A549 NSCLC) [µM]	GI50 (KM12 colon) [µM]	GI50 (MOLT-4 leukemia) [µM]	GI50 (A498 renal) [µM]	GI50 (K-562 leukemia) [µM]	GI50 (SK-MEL-5 melanoma) [µM]
O=C(N[C@@H]1C=CCC[C@@H]1c1ccccc1)OCc1ccccc1	59	36.4	32.9	42.6	> 69.6	33.9	34.6	39	> 100	33.3	–	–	–	–	–	–	–	–	–	–
CCOC(=O)C12CCSC1C1(C#N)C(C#N)=CC2(N=P(c2ccccc2)(c2ccccc2)c2ccccc2)n2c(=O)n(-c3ccccc3)c(=O)n21 (stereo not given)	> 100	> 100	> 100	> 100	> 100	> 100	88.1	> 100	> 100	55.4	–	–	–	–	–	–	–	–	–	–
C=CC1(c2ccccc2Cl)N/C(=C/OCC)CO1 (stereo not given)	> 100	> 100	> 100	> 100	> 100	> 100	> 100	> 100	> 100	> 100	–	–	–	–	–	–	–	–	–	–
CN1C(=O)N(C)C2C1NN=c1s/c(=C\c3c[nH]c4ccccc34)c(=O)n12 (stereo not given)	> 100	> 100	> 100	> 100	> 100	> 100	> 100	0.602	> 100	0.184	0.588	0.143	0.0413	0.0547	0.109	0.04	0.0644	0.0688	0.0312	0.0347
COc1ccc(N2CCN(CN3CCN(c4ccc(OC)cc4)C3)C2)cc1	> 100	> 100	> 100	> 100	> 100	> 100	37.2	> 100	52.7	> 100	> 100	> 100	> 100	> 100	> 100	> 100	12.3	1.82	27.8	> 100
c1ccc(CCCNc2nnnc3ccccc23)cc1	> 100	> 100	> 100	> 100	> 100	> 100	> 100	> 100	> 100	> 100	–	–	–	–	–	–	–	–	–	–
CSC1=Nc2c(c(C)c(-c3ccccc3)n2CCCCl)C2=NC(=O)CN12	47.6	29.8	16.4	72.8	65.8	18.7	> 100	15	> 100	14.1	8.57	11	3.92	16.3	7.68	4.2	3.93	3.89	5.77	3.49
NC1=NN(c2ccccc2)C(=O)C1/C(=N\NC(=O)c1cc2ccccc2cc1O)C(=O)Nc1nc([N+](=O)[O-])cs1 (stereo not given)	> 100	> 100	> 100	62.6	> 100	> 80	58.8	> 100	42.2	48.9	–	–	–	–	–	–	–	–	–	–
Cc1ccc(/C=N/NS(=O)(=O)c2ccccc2)cc1	> 100	> 100	> 100	> 100	> 100	> 100	> 100	> 100	> 100	> 100	–	–	–	–	–	–	–	–	–	–
CCOc1ccccc1NC(=O)C(=O)C(C(=O)c1ccc2ccccc2c1)C1OC(=O)c2ccccc21 (stereo not given)	53.1	7.06	22.5	38.8	98.2	59.5	30.3	30.5	> 100	24.5	–	–	–	–	–	–	–	–	–	–
Nc1ccc(-c2ccc(Nc3cc(S(=O)(=O)O)c(N)c4c3C(=O)c3ccccc3C4=O)cc2)c(S(=O)(=O)O)c1	> 100	> 100	> 100	> 100	> 100	> 100	> 100	> 100	> 100	> 100	–	–	–	–	–	–	–	–	–	–
